Assay results: patent US5472979A, “1,2,3,4-tetrahydronaphthalene compounds” (Adir et Compagnie, priority 1993, dated 1995)
Where a name gives a salt, the structure may show the parent alone.

Legend:
[1] = tested on: platelet aggregation induced by the TXA2 agonist, U46619; assay: Platelet aggregation in rabbits (PRP, U46619-induced); format: cell-based; conditions: Oryctolagus cuniculus, rabbit PRP, 37° C., antagonist 3 min before U46619, read-out: IC50 Rabbit (inhibition of U46619-induced platelet aggregation)
Procedure: Rabbits (2-3 kg) are anesthetized with pentobarbital sodium (30 mg/kg i.v.). After cannulation of the left carotid artery, blood is withdrawn onto sodium citrate (0.109M) (1 vol. of citrate per 9 vol. of blood).
Platelet-rich plasma (PRP) is obtained by centrifugation (20° C.) at 250 g for 20 minutes, and platelet-poor plasma (PPP) by centrifugation at 1000 g (10 min). The number of platelets (PL) in the PRP is adjusted to between 300-350,000 PL/mm^3 by dilution with autologous PPP. The PRP is stored at the temperature of the room until the time of the test, and is used within 4 hours following withdrawal.
Platelet aggregation is carried out at 37° C. in siliconed glass tubes using an aggregometer. The PRP and PLs are stirred at 1000 rpm (revolutions per minute). In order to study the activity of thromboxane antagonists, the PRP is incubated for 1 min at 37° C., and the antagonist is then added for a period of 3 min before addition of the agonist U46619 […]. The final volume in the cell is then […]. The intensity of platelet aggregation is established by taking the maximum amplitude of the aggregation plots and is expressed as a percentage light transmission (% T).

[2] = tested on: platelet aggregation induced by the TXA2 agonist, U46619; assay: Platelet aggregation in dogs (PRP, adrenalin + U46619-induced); format: cell-based; conditions: Canis lupus familiaris, 0.05 h, dog PRP, 37° C., 3 min, adrenalin (10 μM) then U46619, read-out: IC50 Dog (inhibition of aggregation to U46619 + adrenalin)
Procedure: After anesthetizing the animal with pentobarbital sodium (30 mg/kg i.v.), arterial blood is withdrawn onto sodium citrate (0.109M) (1 vol. of citrate per 9 vol. of blood). The platelet-rich plasma (PRP) is obtained after centrifugation (20° C.) at 200 g for 10 minutes. The number of platelets in the PRP is, on average, 300,000 PL/mm^3 The PRP is stored at the temperature of the room until the time of the test, and is used within 4 hours following withdrawal.
The PRP is incubated at 37° C. in the presence of the antagonist to be tested for 3 minutes. Aggregation is subsequently obtained by the addition of adrenalin (10μM) followed by that of U46619 […] 30 seconds later.

[3] = tested on: platelet aggregation induced by the TXA2 agonist, U46619; assay: Platelet aggregation in man (PRP, U46619-induced); format: cell-based; conditions: human PRP, procedure of Example 19, U46619 0.3 mM, read-out: IC50 (inhibition of U46619-induced platelet aggregation)
Procedure: Dog platelets respond weakly to U46619 alone. […] The PRP is incubated at 37° C. in the presence of the antagonist to be tested for 3 minutes. Aggregation is subsequently obtained by the addition of adrenalin (10μM) followed by that of U46619 […] 30 seconds later.
Venous blood is obtained from human volunteers who have taken no aspirin for at least 14 days preceding the experiment. Blood is withdrawn onto sodium citrate (0.109M) (1 vol. of citrate per 9 vol. of blood). Platelet-rich plasma (PRP) is obtained after centrifugation (20° C.) at 200 g for 10 minutes. The number of platelets is, on average, 250,000 PL/mm^3. The PRP is stored at the temperature of the room until the time of the test, and is used within 2 hours following withdrawal. The antagonists are tested according to the procedure described in Example 19, using U46619 at the concentration of […].

[4] = biological target: T1, platelet TXA2 receptors (Homo sapiens, UniProt P21731); assay: Specific binding to human platelet membranes (3H-SQ29548 competition); conditions: 25° C., Cheng and Prusoff
T1 construct: platelet membranes, prepared from washed, ground and centrifuged human platelets; from tissue; host or cells: human platelets (membranes)
T1 sequence (P21731 1-343): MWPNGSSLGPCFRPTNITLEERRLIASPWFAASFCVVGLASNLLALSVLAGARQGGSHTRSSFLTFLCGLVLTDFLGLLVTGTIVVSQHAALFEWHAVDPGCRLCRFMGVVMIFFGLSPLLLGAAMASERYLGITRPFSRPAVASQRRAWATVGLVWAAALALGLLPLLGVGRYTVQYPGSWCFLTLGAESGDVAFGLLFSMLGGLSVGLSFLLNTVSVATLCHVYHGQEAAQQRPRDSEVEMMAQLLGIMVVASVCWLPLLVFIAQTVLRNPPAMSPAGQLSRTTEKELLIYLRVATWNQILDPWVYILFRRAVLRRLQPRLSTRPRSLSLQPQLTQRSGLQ
Procedure: The experiments take place at a temperature of 25° C. in a final reaction volume of 0.2 ml in the presence of 0.1 mg of platelet membranes, prepared from washed, ground and centrifuged human platelets. Determination of the activity of the products of the invention is made by competition experiments, in which increasing concentrations of product are placed in the presence of a fixed concentration of ^3 H-SQ29548. This protocol makes it possible to produce inhibition curves for each antagonist studied. The 50% inhibitory concentration is determined by non-linear regression by the "Simplex" method described by M. S. Caceci et al., (Byte, 340-362, May 1984) calculated according to the mass action law model of C. Michaelis et al. (Biochem. Zeitschrift, 49, 333-369, 1913). The inhibition constant is then determined using the formula of Cheng and Prusoff (Biochem. Pharmacol., 22, 3099-3108, 1973).

[5] = tested on: platelet aggregation of U46619; assay: ex vivo platelet aggregation in dogs after oral administration; parameters: species or system dog
Procedure: The experiments are carried out on non-anesthetized dogs. After applying a tourniquet and introduction of a needle into the cephalic vein, blood is withdrawn onto sodium citrate (0.109M). The blood is stored at the temperature of the room. Platelet aggregation is measured in the total blood using an impedance probe in an aggregometer. The pro-aggregating activity of the thromboxane receptor agonist, U46619, is tested in the presence of adrenalin (10 μM). The products of the invention and the reference substances are administered to dogs orally after performing the control test. Blood samples are subsequently withdrawn at determined times: t=30 min, 1 h, 2 h, 4 h, 6 h, 24 h, 48 h, etc. until the aggregation activity of U46619 has fully returned.

[6] = tested on: guinea pig carotid artery; assay: Experimental thrombosis in guinea pig carotid artery; format: in vivo; conditions: i.v. injection of 100 μg/kg, n=3; 10±2 CFV/20 min before the treatment; control 9±1 then 8±1
Procedure: The technique recently described by Roux et al., Thrombosis and Haemostasis, 71, 252-256 (1994), was used in order to measure the anti-thrombotic effect of our products. Male guinea pigs (390 to 420 g) were anesthetized with ketamine hydrochloride (90 mg/kg i.m.) and xylazine (12 mg/kg i.m.). A catheter is introduced into the left jugular vein in order to allow the i.v. injection of the substances. The right carotid artery is prepared and a Doppler probe (20 MHz) is installed, which allows the blood flow to be measured. At a distance of two mm from the Doppler probe a subendothelial lesion is produced using a clamp ("pinching"). After introduction of this lesion, the blood flow decreases and stops altogether (between 1 and 2 min). When the flow is at zero, the artery is touched, which removes the occlusive thrombus and restores the flow (see Roux et al., 1994). This thrombotic process is repeated and the cyclic decreases in the flow (CFV=cyclic flow variations) are expressed as a number per 20 min. In control carotid arteries (n=4), the CFVs are counted over 2 periods of 20 min: during the first period, 9±1 CFV/20 min are counted; during the second period, 8±1 CFV/20 min are counted. In a group of animals (n=3) treated with the compound of Example 1, 10±2 CFV/20 min are counted before the treatment and 0.3±0.3 CFV/20 min are counted alter an i.v. injection of 100 μg/kg.

Row | Structure (SMILES) | IC50 [1] [nM] | IC50 [2] [nM] | also measured
1 | O=C(O)CCc1cccc2c1OCC(NS(=O)(=O)c1ccc(Cl)cc1)C2 (stereo not shown) [Example 16, 3-[3-(4-Chlorophenylsulfonyl)amino-8-chromanyl]propionic acid] | 250 | 20 | 
2 | O=C(O)CCn1c2c(c3ccccc31)C[C@H](NS(=O)(=O)c1ccc(F)cc1)CC2 [BAY U3405, reference compound] | 1100 | 110 | IC50 [3]: 180 nM; Ki [4]: 3.61 nM; duration of total inhibition of aggregation ex vivo ([5]; 100 μg/kg per os): 6 h
3 | Cc1cc(CCC(=O)O)c2c(c1)CC(NS(=O)(=O)c1ccc(F)cc1)CC2 (stereo not shown) [Example 11, 3-{6-[(4-Fluorophenylsulfonyl)amino]-3-methyl-5,6,7,8-tetrahydronaphth-1-yl}propionic acid] | 670 | 56 | 
4 | O=C(O)CCc1cccc2c1OCC(NS(=O)(=O)c1ccc(F)cc1)C2 (stereo not shown) [Example 17, 3-[3-(4-Fluorophenylsulfonyl)aminochroman-8-yl]propionic acid] | 1100 |  | 
5 | Cc1ccc(S(=O)(=O)NC2CCc3c(CCC(=O)O)cccc3C2)cc1 (stereo not shown) [Example 9, 3-[6-(4-Tolylsulfonylamino)-5,6,7,8-tetrahydronaphth-1-yl]propionic acid] | 320 | 15 | 
6 | Cc1ccc2c(c1CCC(=O)O)CCC(NS(=O)(=O)c1ccc(F)cc1)C2 (stereo not shown) [Example 3, 3-{6-[(4-Fluorophenylsulfonyl)amino]-2-methyl-5,6,7,8-tetrahydronaphth-1-yl}propionic acid, sodium salt] | 270 | 10 | 
7 | Cc1ccc2c(c1CCC(=O)O)CCC(NS(=O)(=O)c1ccc(Cl)cc1)C2 (stereo not shown) [Example 1, 3-{6-[(4-Chlorophenylsulfonyl)amino]-2-methyl-5,6,7,8-tetrahydronaphth-1-yl}propionic acid, sodium salt] | 240 | 28 | IC50 [3]: 84 nM; Ki [4]: 0.96 nM; duration of complete inhibition of U46619 platelet aggregation ex vivo ([5]; 10 μg/kg per os): at least 3 days; duration of inhibition of U46619 platelet aggregation ex vivo ([5]; 100 μg/kg per os): at least 8 days; inhibition of U46619 platelet aggregation ex vivo (words, compared with 100 μg/kg per os, at least 8 days) ([5]; 3 mg/kg per os): same result; duration of complete inhibition of U46619 platelet aggregation ex vivo ([5]; 10 to 3000 μg/kg, orally): at least 3 days; duration of complete inhibition of U46619 platelet aggregation ex vivo, highest dose ([5]; highest dose of 10 to 3000 μg/kg, orally): up to 11 days; cyclic flow variations (CFV) after treatment [6]: 0.3±0.3 CFV/20 min
8 | Cc1ccc2c(c1CCC(=O)O)CCC(NS(=O)(=O)c1cccc3ccccc13)C2 (stereo not shown) [Example 8, 3-[6-(1 -Naphthylsulfonylamino)-2-methyl-5,6,7,8-tetrahydronaphth-1-yl]propionic acid] |  | 150 | 
